Data published in the kinase profiling compilation of Christmann-Franck et al. (2016).
Where “and” joins values, the source holds several entries; their conditions need not be identical. Equal values may be shown once.

Assays:
Experiment in all cases: radiometric filter-binding kinase assay, Kinase HotSpot
Details in all cases: compound 0.5 µM; ATP 10 µM
MAPK8 (human) = MAPK8 (human) (UniProt P45983)
MAPKAPK5 (human) = MAPKAPK5 (human) (UniProt Q8IW41)
DYRK1B (human) = DYRK1B (human) (UniProt Q9Y463)
DYRK2 (human) = DYRK2 (human) (UniProt Q92630)
ACVR1 (human) = ACVR1 (human) (UniProt Q04771)
CSNK1A1 (human) = CSNK1A1 (human) (UniProt P48729)
DDR2 (human) = DDR2 (human) (UniProt Q16832)
MAPK12 (human) = MAPK12 (human) (UniProt P53778)
SLK (human) = SLK (human) (UniProt Q9H2G2)
RPS6KA1 KD1 KD2 (human) = RPS6KA1 KD1 KD2 (human) (UniProt Q15418)
EPHA2 (human) = EPHA2 (human) (UniProt P29317)
CAMK2G (human) = CAMK2G (human) (UniProt Q13555)
PRKG1 (human) = PRKG1 (human) (UniProt Q13976)
MAP3K3 (human) = MAP3K3 (human) (UniProt Q99759)
GRK4 (human) = GRK4 (human) (UniProt P32298)
PDGFRA (human) = PDGFRA (human) (UniProt P16234)
NLK (human) = NLK (human) (UniProt Q9UBE8)
PTK2 (human) = PTK2 (human) (UniProt Q05397)
MET (human) = MET (human) (UniProt P08581)
PRKD1 (human) = PRKD1 (human) (UniProt Q15139)
NEK1 (human) = NEK1 (human) (UniProt Q96PY6)
CAMK1D (human) = CAMK1D (human) (UniProt Q8IU85)
NEK7 (human) = NEK7 (human) (UniProt Q8TDX7)
RPS6KB1 (human) = RPS6KB1 (human) (UniProt P23443)
MARK3 (human) = MARK3 (human) (UniProt P27448)
TBK1 (human) = TBK1 (human) (UniProt Q9UHD2)
HCK (human) = HCK (human) (UniProt P08631)
FGFR3 (human) = FGFR3 (human) (UniProt P22607)
NTRK1 (human) = NTRK1 (human) (UniProt P04629)
CAMK1G (human) = CAMK1G (human) (UniProt Q96NX5)
PRKCZ (human) = PRKCZ (human) (UniProt Q05513)
NTRK3 (human) = NTRK3 (human) (UniProt Q16288)
PRKD2 (human) = PRKD2 (human) (UniProt Q9BZL6)
PNCK (human) = PNCK (human) (UniProt Q6P2M8)
EPHB3 (human) = EPHB3 (human) (UniProt P54753)
SRPK3 (human) = SRPK3 (human) (UniProt Q9UPE1)
NEK11 (human) = NEK11 (human) (UniProt Q8NG66)
MINK1 (human) = MINK1 (human) (UniProt Q8N4C8)
BRSK2 (human) = BRSK2 (human) (UniProt Q8IWQ3)
MST4 (human) = MST4 (human) (UniProt Q9P289)
HIPK1 (human) = HIPK1 (human) (UniProt Q86Z02)
JAK3 JH1 JH2 (human) = JAK3 JH1 JH2 (human) (UniProt P52333)

PTK2 (human), sequence (Q05397 whole entry, looked up): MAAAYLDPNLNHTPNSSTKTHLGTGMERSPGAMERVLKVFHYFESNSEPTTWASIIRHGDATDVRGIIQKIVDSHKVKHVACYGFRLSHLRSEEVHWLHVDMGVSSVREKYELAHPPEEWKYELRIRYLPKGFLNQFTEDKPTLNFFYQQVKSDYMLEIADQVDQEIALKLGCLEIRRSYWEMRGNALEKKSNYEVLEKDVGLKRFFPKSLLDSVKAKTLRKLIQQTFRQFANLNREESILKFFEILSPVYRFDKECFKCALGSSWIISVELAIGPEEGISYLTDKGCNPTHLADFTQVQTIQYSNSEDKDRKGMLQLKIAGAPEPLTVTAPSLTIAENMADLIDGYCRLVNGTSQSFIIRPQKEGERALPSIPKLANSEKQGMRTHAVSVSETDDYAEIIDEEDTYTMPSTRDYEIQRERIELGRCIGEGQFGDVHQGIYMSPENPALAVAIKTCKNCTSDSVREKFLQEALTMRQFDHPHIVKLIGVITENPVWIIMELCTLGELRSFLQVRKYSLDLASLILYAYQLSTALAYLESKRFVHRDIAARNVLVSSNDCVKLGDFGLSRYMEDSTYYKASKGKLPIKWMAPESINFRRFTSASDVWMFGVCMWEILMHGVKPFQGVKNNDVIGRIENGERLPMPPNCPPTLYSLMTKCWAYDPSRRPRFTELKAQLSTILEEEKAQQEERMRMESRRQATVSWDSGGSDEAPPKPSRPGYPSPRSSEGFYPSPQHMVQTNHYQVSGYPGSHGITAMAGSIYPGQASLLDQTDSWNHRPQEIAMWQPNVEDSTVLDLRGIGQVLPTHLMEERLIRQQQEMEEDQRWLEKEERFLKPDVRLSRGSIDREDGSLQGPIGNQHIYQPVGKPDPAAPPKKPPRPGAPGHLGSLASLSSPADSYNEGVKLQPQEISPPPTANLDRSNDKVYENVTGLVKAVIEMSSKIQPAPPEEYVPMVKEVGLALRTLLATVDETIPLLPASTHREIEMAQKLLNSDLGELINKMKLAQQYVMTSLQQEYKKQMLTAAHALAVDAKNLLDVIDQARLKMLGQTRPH
MAP3K3 (human), sequence (Q99759 whole entry, looked up): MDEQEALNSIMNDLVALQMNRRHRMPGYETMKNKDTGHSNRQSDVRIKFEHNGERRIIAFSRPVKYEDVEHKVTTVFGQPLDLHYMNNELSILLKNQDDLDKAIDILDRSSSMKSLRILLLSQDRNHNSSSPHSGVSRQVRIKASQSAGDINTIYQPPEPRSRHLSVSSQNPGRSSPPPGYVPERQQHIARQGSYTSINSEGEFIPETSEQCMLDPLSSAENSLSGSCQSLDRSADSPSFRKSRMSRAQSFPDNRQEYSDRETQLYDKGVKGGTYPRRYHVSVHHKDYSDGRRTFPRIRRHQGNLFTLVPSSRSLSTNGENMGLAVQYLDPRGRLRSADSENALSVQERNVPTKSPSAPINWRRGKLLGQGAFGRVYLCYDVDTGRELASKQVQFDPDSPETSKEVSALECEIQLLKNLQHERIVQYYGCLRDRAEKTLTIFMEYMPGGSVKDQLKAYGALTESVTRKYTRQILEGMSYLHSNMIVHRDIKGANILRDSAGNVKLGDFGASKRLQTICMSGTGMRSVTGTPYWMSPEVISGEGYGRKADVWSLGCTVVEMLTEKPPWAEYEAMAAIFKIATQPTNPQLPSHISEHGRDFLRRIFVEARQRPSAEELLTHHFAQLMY
MAPKAPK5 (human), sequence (Q8IW41 whole entry, looked up): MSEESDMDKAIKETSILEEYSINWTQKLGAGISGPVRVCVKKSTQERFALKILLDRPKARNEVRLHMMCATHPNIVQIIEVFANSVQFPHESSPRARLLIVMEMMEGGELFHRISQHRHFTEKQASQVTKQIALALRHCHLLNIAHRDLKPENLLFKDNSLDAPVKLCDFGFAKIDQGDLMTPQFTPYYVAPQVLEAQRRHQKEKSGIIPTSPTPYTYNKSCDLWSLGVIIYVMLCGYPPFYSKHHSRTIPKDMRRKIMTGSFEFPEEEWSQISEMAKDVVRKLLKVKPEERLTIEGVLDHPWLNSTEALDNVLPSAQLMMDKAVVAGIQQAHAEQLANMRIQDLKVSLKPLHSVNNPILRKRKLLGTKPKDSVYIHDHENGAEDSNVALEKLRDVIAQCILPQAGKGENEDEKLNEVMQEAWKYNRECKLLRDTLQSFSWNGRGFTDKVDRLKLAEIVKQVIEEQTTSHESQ
PNCK (human), sequence (Q6P2M8 whole entry, looked up): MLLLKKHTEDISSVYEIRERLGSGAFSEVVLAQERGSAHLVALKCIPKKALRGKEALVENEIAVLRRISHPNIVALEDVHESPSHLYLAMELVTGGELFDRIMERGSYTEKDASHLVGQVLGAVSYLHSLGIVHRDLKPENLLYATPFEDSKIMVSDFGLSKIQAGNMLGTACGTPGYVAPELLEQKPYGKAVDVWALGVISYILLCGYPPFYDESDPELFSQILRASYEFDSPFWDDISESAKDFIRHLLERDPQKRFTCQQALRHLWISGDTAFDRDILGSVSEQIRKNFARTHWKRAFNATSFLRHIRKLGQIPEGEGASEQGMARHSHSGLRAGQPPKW
HIPK1 (human), sequence (Q86Z02 whole entry, looked up): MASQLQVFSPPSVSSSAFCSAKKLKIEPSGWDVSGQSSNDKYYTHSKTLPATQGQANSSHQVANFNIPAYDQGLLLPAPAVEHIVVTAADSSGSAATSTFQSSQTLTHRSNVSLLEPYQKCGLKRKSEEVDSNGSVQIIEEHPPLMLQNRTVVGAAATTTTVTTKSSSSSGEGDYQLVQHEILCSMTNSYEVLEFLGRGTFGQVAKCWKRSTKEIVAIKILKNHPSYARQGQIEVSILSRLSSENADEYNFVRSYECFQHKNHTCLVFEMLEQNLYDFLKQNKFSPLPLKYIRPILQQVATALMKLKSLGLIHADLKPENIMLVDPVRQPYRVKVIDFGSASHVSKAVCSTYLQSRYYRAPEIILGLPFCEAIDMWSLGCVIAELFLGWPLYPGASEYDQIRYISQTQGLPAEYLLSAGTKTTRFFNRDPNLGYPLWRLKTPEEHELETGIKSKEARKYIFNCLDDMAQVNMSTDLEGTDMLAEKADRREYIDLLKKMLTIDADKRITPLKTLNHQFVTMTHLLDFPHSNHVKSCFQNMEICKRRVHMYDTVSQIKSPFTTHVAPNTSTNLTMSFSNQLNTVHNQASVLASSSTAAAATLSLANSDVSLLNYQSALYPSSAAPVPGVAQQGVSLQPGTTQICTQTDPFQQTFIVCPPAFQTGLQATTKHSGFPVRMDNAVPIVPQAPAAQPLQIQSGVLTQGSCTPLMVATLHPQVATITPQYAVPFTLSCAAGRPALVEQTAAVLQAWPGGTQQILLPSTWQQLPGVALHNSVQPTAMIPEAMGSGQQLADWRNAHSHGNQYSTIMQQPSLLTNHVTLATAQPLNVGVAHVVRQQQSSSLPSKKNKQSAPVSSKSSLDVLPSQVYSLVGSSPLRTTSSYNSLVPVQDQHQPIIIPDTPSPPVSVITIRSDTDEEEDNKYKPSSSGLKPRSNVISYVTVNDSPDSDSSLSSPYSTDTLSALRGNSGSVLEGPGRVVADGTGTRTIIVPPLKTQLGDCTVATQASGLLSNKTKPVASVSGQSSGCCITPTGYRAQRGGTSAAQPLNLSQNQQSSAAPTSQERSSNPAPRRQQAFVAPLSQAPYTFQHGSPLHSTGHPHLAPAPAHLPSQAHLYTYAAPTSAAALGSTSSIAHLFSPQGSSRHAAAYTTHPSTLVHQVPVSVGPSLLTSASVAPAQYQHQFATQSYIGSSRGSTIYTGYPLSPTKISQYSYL
PDGFRA (human), sequence (P16234 whole entry, looked up): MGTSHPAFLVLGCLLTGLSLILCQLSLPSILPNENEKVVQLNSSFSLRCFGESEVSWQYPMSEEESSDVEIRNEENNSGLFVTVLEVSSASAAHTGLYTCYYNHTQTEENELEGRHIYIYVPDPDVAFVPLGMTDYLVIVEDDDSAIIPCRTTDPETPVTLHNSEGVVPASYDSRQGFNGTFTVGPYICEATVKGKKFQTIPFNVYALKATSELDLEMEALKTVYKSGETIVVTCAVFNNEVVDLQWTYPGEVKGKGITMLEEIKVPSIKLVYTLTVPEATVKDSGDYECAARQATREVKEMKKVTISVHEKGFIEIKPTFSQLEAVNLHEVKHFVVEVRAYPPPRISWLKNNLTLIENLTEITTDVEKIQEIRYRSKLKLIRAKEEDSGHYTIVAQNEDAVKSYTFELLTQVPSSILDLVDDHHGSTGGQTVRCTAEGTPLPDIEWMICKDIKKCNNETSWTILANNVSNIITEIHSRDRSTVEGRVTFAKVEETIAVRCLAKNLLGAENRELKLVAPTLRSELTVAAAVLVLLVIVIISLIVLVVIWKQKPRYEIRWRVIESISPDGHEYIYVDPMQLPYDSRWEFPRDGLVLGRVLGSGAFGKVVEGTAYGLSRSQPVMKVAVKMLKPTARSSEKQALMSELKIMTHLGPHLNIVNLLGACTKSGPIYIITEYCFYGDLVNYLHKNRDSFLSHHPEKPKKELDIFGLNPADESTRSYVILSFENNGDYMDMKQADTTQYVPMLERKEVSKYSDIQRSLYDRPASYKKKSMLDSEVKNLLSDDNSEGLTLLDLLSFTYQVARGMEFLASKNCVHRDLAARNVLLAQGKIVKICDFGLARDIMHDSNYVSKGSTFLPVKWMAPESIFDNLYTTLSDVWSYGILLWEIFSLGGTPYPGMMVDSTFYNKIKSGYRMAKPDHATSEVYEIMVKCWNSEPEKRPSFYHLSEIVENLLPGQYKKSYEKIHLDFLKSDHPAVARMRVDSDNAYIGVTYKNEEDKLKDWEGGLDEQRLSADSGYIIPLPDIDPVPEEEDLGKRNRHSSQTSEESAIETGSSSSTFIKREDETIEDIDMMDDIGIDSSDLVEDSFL

N#C/C(=C\c1ccc(O)c(O)c1)C(=O)NCc1ccccc1
residual activity (MAPK8 (human)): 99.1%
residual activity (MAPKAPK5 (human)): 94.2%
residual activity (DYRK1B (human)): 106%
residual activity (DYRK2 (human)): 103%
residual activity (ACVR1 (human)): 91.3%
residual activity (CSNK1A1 (human)): 110%
residual activity (DDR2 (human)): 97.2%
residual activity (MAPK12 (human)): 94.2%
residual activity (SLK (human)): 99.1%
residual activity (RPS6KA1 KD1 KD2 (human)): 102%
residual activity (EPHA2 (human)): 105%
residual activity (CAMK2G (human)): 94.1%
residual activity (PRKG1 (human)): 89.2% and 92.6%
residual activity (MAP3K3 (human)): 102%
residual activity (GRK4 (human)): 101%
residual activity (PDGFRA (human)): 110%
residual activity (NLK (human)): 110%
residual activity (PTK2 (human)): 96.9%
residual activity (MET (human)): 98.1%
residual activity (PRKD1 (human)): 92.5%
residual activity (NEK1 (human)): 97.3%
residual activity (CAMK1D (human)): 96.4%
residual activity (NEK7 (human)): 111%
residual activity (RPS6KB1 (human)): 92.8%
residual activity (MARK3 (human)): 97.5%
residual activity (TBK1 (human)): 98.3%
residual activity (HCK (human)): 97.5%
residual activity (FGFR3 (human)): 98.2%
residual activity (NTRK1 (human)): 98.4%
residual activity (CAMK1G (human)): 98.7%
residual activity (PRKCZ (human)): 104%
residual activity (NTRK3 (human)): 98.8%
residual activity (PRKD2 (human)): 101%
residual activity (PNCK (human)): 97.1%
residual activity (EPHB3 (human)): 101%
residual activity (SRPK3 (human)): 93.9%
residual activity (NEK11 (human)): 95.4%
residual activity (MINK1 (human)): 97.9%
residual activity (BRSK2 (human)): 99.3%
residual activity (MST4 (human)): 103%
residual activity (HIPK1 (human)): 101%

N#Cc1c[nH]c2c[nH]/c(=N\Cc3cccnc3)cc2/c1=N\c1ccc(F)c(Cl)c1
residual activity (MAPK8 (human)): 110%
residual activity (MAPKAPK5 (human)): 99.6%
residual activity (DYRK1B (human)): 65.2%
residual activity (DYRK2 (human)): 95.5%
residual activity (ACVR1 (human)): 95.6%
residual activity (CSNK1A1 (human)): 101%
residual activity (DDR2 (human)): 91.9%
residual activity (SLK (human)): 86.6%
residual activity (RPS6KA1 KD1 KD2 (human)): 94.6%
residual activity (EPHA2 (human)): 102%
residual activity (CAMK2G (human)): 91.2%
residual activity (PRKG1 (human)): 87.2% and 90.8%
residual activity (MAP3K3 (human)): 75%
residual activity (GRK4 (human)): 98.8%
residual activity (PDGFRA (human)): 94.3%
residual activity (NLK (human)): 88%
residual activity (PTK2 (human)): 99.6%
residual activity (MET (human)): 94.9%
residual activity (PRKD1 (human)): 94.5%
residual activity (NEK1 (human)): 20.5%
residual activity (JAK3 JH1 JH2 (human)): 86.2%
residual activity (CAMK1D (human)): 97.8%
residual activity (NEK7 (human)): 102%
residual activity (RPS6KB1 (human)): 89.4%
residual activity (MARK3 (human)): 101%
residual activity (TBK1 (human)): 83.4%
residual activity (HCK (human)): 92.5%
residual activity (FGFR3 (human)): 91.7%
residual activity (NTRK1 (human)): 96.2%
residual activity (CAMK1G (human)): 96.1%
residual activity (PRKCZ (human)): 93.9%
residual activity (NTRK3 (human)): 93.2%
residual activity (PRKD2 (human)): 99.7%
residual activity (PNCK (human)): 99.8%
residual activity (EPHB3 (human)): 98.5%
residual activity (SRPK3 (human)): 96.4%
residual activity (NEK11 (human)): 87.1%
residual activity (MINK1 (human)): 77.5%
residual activity (BRSK2 (human)): 100%
residual activity (MST4 (human)): 95%
residual activity (HIPK1 (human)): 98.6%

COc1ccc2c(c1)/C(=C/c1cnc[nH]1)C(O)=N2
residual activity (MAPK8 (human)): 95.9%
residual activity (MAPKAPK5 (human)): 95.2%
residual activity (DYRK1B (human)): 53.1%
residual activity (DYRK2 (human)): 76.9%
residual activity (ACVR1 (human)): 105%
residual activity (CSNK1A1 (human)): 86.4%
residual activity (DDR2 (human)): 95.5%
residual activity (MAPK12 (human)): 95.5%
residual activity (SLK (human)): 81.9%
residual activity (RPS6KA1 KD1 KD2 (human)): 69.6%
residual activity (EPHA2 (human)): 98.4%
residual activity (CAMK2G (human)): 94.6%
residual activity (PRKG1 (human)): 91.7% and 99%
residual activity (MAP3K3 (human)): 84.2%
residual activity (GRK4 (human)): 93.6%
residual activity (PDGFRA (human)): 94.9%
residual activity (NLK (human)): 69.7%
residual activity (PTK2 (human)): 87.9%
residual activity (MET (human)): 103%
residual activity (PRKD1 (human)): 47.9%
residual activity (NEK1 (human)): 84.4%
residual activity (JAK3 JH1 JH2 (human)): 49.6%
residual activity (CAMK1D (human)): 98.3%
residual activity (RPS6KB1 (human)): 98.2%
residual activity (MARK3 (human)): 56.2%
residual activity (TBK1 (human)): 70.7%
residual activity (HCK (human)): 96.1%
residual activity (FGFR3 (human)): 65%
residual activity (NTRK1 (human)): 61.4%
residual activity (CAMK1G (human)): 95.6%
residual activity (PRKCZ (human)): 107%
residual activity (NTRK3 (human)): 9.35%
residual activity (PRKD2 (human)): 60.2%
residual activity (PNCK (human)): 86.3%
residual activity (EPHB3 (human)): 98.8%
residual activity (SRPK3 (human)): 96.2%
residual activity (NEK11 (human)): 84.8%
residual activity (MINK1 (human)): 57.9%
residual activity (BRSK2 (human)): 61.7%
residual activity (MST4 (human)): 88.5%
residual activity (HIPK1 (human)): 98.9%
